# In patent publication US12600716B2 (Gannex Pharma Co., Ltd., priority 2020, dated 2026):
# Legend:
# hFXR-LBD-GAL4 = target: T1, hFXR-LBD-GAL4 (Homo sapiens, UniProt Q96RI1); assay: FXR agonist transactivation ability: luciferase reporter gene in HEK293T; type: cell-based; conditions: read-out: Cell activity
# T1 construct: GAL4 (fusion partner); host or cells: HEK293T
# T1 sequence (Q96RI1 262-486 limits assumed): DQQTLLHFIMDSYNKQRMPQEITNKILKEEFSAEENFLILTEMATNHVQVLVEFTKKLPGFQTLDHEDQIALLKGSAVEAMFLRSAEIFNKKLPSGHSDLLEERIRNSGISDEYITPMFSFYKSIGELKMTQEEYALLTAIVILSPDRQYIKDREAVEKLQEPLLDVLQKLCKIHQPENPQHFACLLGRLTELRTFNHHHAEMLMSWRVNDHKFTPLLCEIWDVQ
# Experimental: FXR Agonist Transactivation Ability
# Evaluation of the ability of the compound of the present invention to promote FXR transactivation was conducted by using luciferase reporter gene expression technology.
# • 1. Cell line: HEK293T (Invitrogen) • 2. Expression plasmid: pBIND-hFXR-LBD-GAL4 (Promega), pGL4.35-luciferase (Promega) • 3. Cell culture medium: 10% serum and penicillin/streptomycin double antibody in DMEM medium • 4. Detection reagent: Steady-Glo fluorescence detection system (Promega). • 5. Transfection reagent: TransIT-293 Transfection Reagent (MIRUS BIO)
# • 1. The compound was prepared into a 10 mM DMSO stock solution and stored in a −20° C. refrigerator for a long time. • 2. Resuscitation HEK293T cells were seeded in 10 cm culture dishes at a concentration of 5.5×10^6 and incubated for 16 hours at 37° C. in a 5% CO2 incubator. • 3. Return the transfection reagent to room temperature before transfection. The Trans-IT solution was added dropwise to Opti-MEM, and mixed by inversion for 5 minutes; the expression plasmid was added, mixed by inversion, and incubated at room temperature for 20 minutes. • 4. Add the transfection mixture from Step 3 to the prepared 10 cm dish in Step 2 and incubate for 5-6 hours in a 5% CO2 incubator. • 5. Dilute the compound 3 folds to 10 concentration points using DMSO; add 25 nl of compound per well in a 384-well plate using an Echo 550 sonic pipette; add HEK293T cells to the 384-well plate at a concentration of 15,000 cells/well; 37° C. incubate for 16-20 hours in a 5% CO2 incubator. • 6. Add 25 μl of Steady-Glo Fluorescent Reagent to each well and read the fluorescence on an Envision 2104 plate reader. • 7. Calculate the EC50 value of the activation of the compound.
# human FXR protein = target: T2, human FXR protein (Homo sapiens, UniProt Q96RI1); assay: FXR agonist binding ability: time-resolved fluorescence (LanthaScreen) FXR/coactivator assay; type: biochemical; conditions: GST-labeled human FXR, fluorescein-labeled coactivator, TR-FRET
# T2 construct: purchased Invitrogen
# Experimental: FXR Agonist Binding Ability Evaluation of the activation effect of the compound of the present invention with regard to the binding of FXR to its co-stimulatory factor SRC-1 was conducted by using time-resolved analytical techniques. Protein: glutathione-S-transferase (GST)-labeled human FXR protein (Invitrogen) • 2. Coactivator: Fluorescein-labeled steroid receptor coactivator (SRC2-2) (Invitrogen) • 3. Detection reagent: LanthaScreen Time-Resolved Fluorescence Analysis Kit (Invitrogen) • 1. The compound was prepared into a 10 mM DMSO stock solution and stored in a −20° C. refrigerator for a long time. • 2. The compound was diluted to 1 mM before the experiment, and then the compound was diluted 3-fold to 10 concentration points using DMSO. Then use buffer G (Invitrogen, PV4553) to dilute these 10 concentration points by 50 times to become a working fluid. Add 10 μl of each working solution to each well of a 384-well plate. • 3. Prepare a human FXR protein solution (final concentration 20 nM) in chilled buffer G and add 5 μl of human FXR protein solution to each well of a 384-well plate. • 4. Prepare a mix of buffer G containing 2 μM fluorescein-labeled steroid receptor coactivator and 20 nM GST antibody. • 5. Add 5 μl of the mixture prepared in Step 4 to a 384-well plate. • 6. Centrifuge the 384-well plate at 1000 g for 1 minute. • 7. Incubate for 1 hour at room temperature in the dark. • 8. Read the 384-well plate at 520 nm and 495 nm on an Envision 2104 plate reader. • 9. Calculate the EC50 value of the activation effect of the compound.
SMILES,EC50 (hFXR-LBD-GAL4) [nM],EC50 (human FXR protein) [nM]
"O=C(O)c1cnc(Oc2ccc3cc(OCc4c(-c5c(Cl)cccc5Cl)noc4C4CC4)ccc3c2)cn1 [Compound 7, 5-((6-((5-cyclopropyl-3-(2,6-dichlorophenyl)isoxazol-4-yl)methoxy)naphthalen-2-yl)oxy)pyrazine-2-carboxylic acid]",> 1000,> 500
"Cc1cc(C(=O)O)cnc1Oc1ccc2cc(OCc3c(-c4c(Cl)cccc4Cl)noc3C3CC3)ccc2c1 [Compound 5, 6-((6-((5-cyclopropyl-3-(2,6-dichlorophenyl)isoxazol-4-yl)methoxy)naphthalen-2-yl)oxy)-5-methylnicotinic acid]",> 1000,> 500
"O=C(O)c1ccc(Oc2ccc3c(OCc4c(-c5c(Cl)cccc5Cl)noc4C4CC4)cccc3c2)nc1 [Compound 36, 6-((5-((5-cyclopropyl-3-(2,6-dichlorophenyl)isoxazol-4-yl)methoxy)naphthalen-2-yl)oxy)nicotinic acid]",> 1000,50 to 500
"O=C(O)c1ccncc1Oc1ccc2cc(OCc3c(-c4c(Cl)cccc4Cl)noc3C3CC3)ccc2c1 [Compound 16, 3-((6-((5-cyclopropyl-3-(2,6-dichlorophenyl)isoxazol-4-yl)methoxy)naphthalen-2-yl)oxy)isonicotinic acid]",> 1000,< 50
"O=C(O)c1ccc(Oc2c(Cl)cc(Cl)c3cc(OCc4c(-c5c(Cl)cccc5Cl)noc4C4CC4)ccc23)nc1 [Compound 41, 6-((2,4-dichloro-6-((5-cyclopropyl-3-(2,6-dichlorophenyl)isoxazol-4-yl)methoxy)naphthalen-1-yl)oxy)nicotinic acid]",> 1000,> 500
"O=C(O)c1ccnc(Oc2ccc3cc(OCc4c(-c5c(Cl)cccc5Cl)noc4C4CC4)ccc3c2)c1 [Compound 12, 2-((6-((5-cyclopropyl-3-(2,6-dichlorophenyl)isoxazol-4-yl)methoxy)naphthalen-2-yl)oxy)isonicotinic acid]",> 1000,< 50
"O=C(O)c1ccc(Oc2c(Cl)ccc3cc(OCc4c(-c5c(Cl)cccc5Cl)noc4C4CC4)ccc23)nc1 [Compound 42, 6-((2-chloro-6-((5-cyclopropyl-3-(2,6-dichlorophenyl)isoxazol-4-yl)methoxy)naphthalen-1-yl)oxy)nicotinic acid]",> 1000,> 500
"O=C(O)c1cccc(Oc2cccc3cc(OCc4c(-c5c(Cl)cccc5Cl)noc4C4CC4)ccc23)n1 [Compound 23, 6-((6-((5-cyclopropyl-3-(2,6-dichlorophenyl)isoxazol-4-yl)methoxy)naphthalen-1-yl)oxy)picolinic acid]",> 1000,> 500
"Cc1nc(Oc2ccc3cc(OCc4c(-c5c(Cl)cccc5Cl)noc4C4CC4)ccc3c2Cl)ccc1C(=O)O [Compound 43, 6-((1-chloro-6-((5-cyclopropyl-3-(2,6-dichlorophenyl)isoxazol-4-yl)methoxy)naphthalen-2-yl)oxy)-2-methylnicotinic acid]",500 to 1000,50 to 500
"O=C(O)c1ccc(Oc2c(F)ccc3cc(OCc4c(-c5c(Cl)cccc5Cl)noc4C4CC4)ccc23)nc1 [Compound 30, 6-((6-((5-cyclopropyl-3-(2,6-dichlorophenyl)isoxazol-4-yl)methoxy)-2-fluoronaphthalen-1-yl)oxy)nicotinic acid]",< 200,< 50
"O=C(O)c1ncccc1Oc1cccc2cc(OCc3c(-c4c(Cl)cccc4Cl)noc3C3CC3)ccc12 [Compound 25, 3-((6-((5-cyclopropyl-3-(2,6-dichlorophenyl)isoxazol-4-yl)methoxy)naphthalen-1-yl)oxy)picolinic acid]",> 1000,50 to 500
"COc1cc(Cl)c(-c2noc(C3CC3)c2COc2ccc3cc(Oc4ccc(C(=O)O)cn4)ccc3c2)c(Cl)c1 [Compound 19, 6-((6-((5-cyclopropyl-3-(2,6-dichloro-4-methoxyphenyl)isoxazol-4-yl)methoxy)naphthalen-2-yl)oxy)nicotinic acid]",> 1000,> 500
"O=C(NS(=O)(=O)C1CC1)c1ccc(Oc2ccc3cc(OCc4c(-c5c(Cl)cccc5Cl)noc4C4CC4)ccc3c2)nc1 [Compound 6, 6((6((5-cyclopropyl-3-(2,6-dichlorophenyl)isoxazol-4-yl)methoxy)naphthalen-2-yl)oxy)-N-(cyclopropylsulfonyl)nicotinamide]",> 1000,50 to 500
"O=C(O)c1cccnc1Oc1cccc2cc(OCc3c(-c4c(Cl)cccc4Cl)noc3C3CC3)ccc12 [Compound 35, 2-((6((5-cyclopropyl-3-(2,6-dichlorophenyl)isoxazol-4-yl)methoxy)naphthalen-1-yl)oxy)nicotinic acid]",< 200,< 50
O=C(O)c1ccc(Oc2ccc3cc(OCc4c(-c5c(Cl)cccc5Cl)noc4C4CC4)ccc3c2)nc1 [Compound 33],< 200,50 to 500
"O=C(O)c1ncccc1Oc1ccc2cc(OCc3c(-c4c(Cl)cccc4Cl)noc3C3CC3)ccc2c1 [Compound 13, 3-((6-((5-cyclopropyl-3-(2,6-dichlorophenyl)isoxazol-4-yl)methoxy)naphthalen-2-yl)oxy)picolinic acid]",> 1000,50 to 500
"Cc1nc(Oc2c(Cl)ccc3cc(OCc4c(-c5c(Cl)cccc5Cl)noc4C4CC4)ccc23)ccc1C(=O)O [Compound 46, 6((2-chloro-6 ((5-cyclopropyl-3-(2,6-dichlorophenyl)isoxazol-4-yl)methoxy)naphthalen-1-yl)oxy)-2-methylnicotinic acid]",< 200,50 to 500
"O=C(O)c1ccc(Oc2ccc3cc(OCc4c(-c5c(Cl)cccc5Cl)noc4C4CC4)ccc3c2F)nc1 [Compound 20, 6-((6-((5-cyclopropyl-3-(2,6-dichlorophenyl)isoxazol-4-yl)methoxy)-1-fluoronaphthalen-2-yl)oxy)nicotinic acid]",500 to 1000,50 to 500
O=C(O)c1ccc(Oc2ccc3cc(OCc4c(-c5ccccc5OC(F)(F)F)noc4C4CC4)ccc3c2)nc1 [Compound 17],> 1000,> 500
"O=C(O)c1ccc(Oc2ccc3ccc(OCc4c(-c5c(Cl)cccc5Cl)noc4C4CC4)c(F)c3c2)nc1 [Compound 38, 6-((7-((5-cyclopropyl-3-(2,6-dichlorophenyl)isoxazol-4-yl)methoxy)-8-fluoronaphthalen-2-yl)oxy)nicotinic acid]",500 to 1000,< 50
"O=C(O)c1cccnc1Oc1c(F)ccc2cc(OCc3c(-c4c(Cl)cccc4Cl)noc3C3CC3)ccc12 [Compound 48, 2-((6-((5-cyclopropyl-3-(2,6-dichlorophenyl)isoxazol-4-yl)methoxy)-2-fluoronaphthalen-1-yl)oxy)nicotinic acid]",< 200,< 50
"O=C(O)c1cnc(Oc2ccc3cc(OCc4c(-c5c(Cl)cccc5Cl)noc4C4CC4)ccc3c2)s1 [Compound 4, 2-((6-((5-cyclopropyl-3-(2,6-dichlorophenyl)isoxazol-4-yl)methoxy)naphthalen-2-yl)oxy)thiazole-5-carboxylic acid]",> 1000,50 to 500
O=C(O)c1ccc(Oc2ccc3cc(OCc4c(-c5c(Cl)cc(F)cc5Cl)noc4C4CC4)ccc3c2)nc1 [Compound 18],> 1000,50 to 500
